Reference: patent US8710079B2, “Quinoline compounds and their use for treating viral infection” (National Health Research Institutes, priority 2010, dated 2014)
Where two headings read alike, the source gives them in different places.

Experiments:
[1] = tested on: Influenza A/WSN/33 (H1N1) virus; assay: In vitro anti-influenza virus assay (neutralization test), cytopathic effect on MDCK cells; assay type: cell-based; settings: 72 h, read-out: IC50 (concentration reducing virus-induced cytopathic effect by 50%)
HIV-1 = assay: microbe, parasite or virus in culture; settings: Human immunodeficiency virus 1, PBMC
Description: Equal amounts of wild-type and mutant viruses were used to infect 5×10^4 peripheral blood mononuclear cells (PBMC) in 1.5 mL medium containing DMSO or various concentrations of a test compound. A half-milliliter of the culture medium was collected from each culture at days 3, 5, and 7. Viral RNA was extracted from the collected culture supernatants and the viral titers (copies/mL) were determined by real-time PCR. The percentage of inhibition was calculated as [100−(VD/VC)]×100%, where VD and VC refer to the virus titers in the presence and absence of the test compound, respectively.

[2] = tested on: Influenza A/TW/70066/09 (H1N1); assay: Anti-influenza neutralization test, various influenza virus strains; assay type: cell-based
[3] = tested on: Influenza A/TW/70058/09 (H1N1); assay: as above; assay type: cell-based
Enterovirus 71/4643/MP4 = assay: In vitro EV 71 neutralization assay, cytopathic effect on RD cells; settings: Enterovirus A
Description: (§1) This assay measured the ability of a test compound to inhibit the cytopathic effect induced by a picornavirus (EV71, Coxsackie Virus B3, or human rhinovirus 2) on RD cells. […] More specifically, 96-well tissue culture plates were seeded with 200 μL of RD cells at a concentration of 3×10^5 cells/mL in DMEM with 10% FBS. The plates were incubated for 24-30 h at 37° C. and were used at about 90% confluency. Virus (100 TCID50) mixed with different concentrations of a test compound was added to the cells and incubated at 37° C. for 1 h. After adsorption, the infected cell plates were overlaid with 50 μL of DMEM plus 5% FBS and 2% DMSO. The plate was wrapped in Parafilm and incubated at 37° C. for 64 h. At the end of incubation, the plates were fixed by the addition of 100 μL of 0.5% glutaraldehyde for 1 h at room temperature. After the removal of glutaraldehyde, the plates were stained with 0.1% crystal violet for 15 min at room temperature. The plates were washed and dried, and the density of the well was measured at 570 nm. The concentration required for a test compound to reduce the virus-induced cytopathic effect (CPE) by 50% relative to the virus control is expressed as IC50.

Human rhinovirus 2 = assay: In vitro human rhinovirus 2 neutralization assay, cytopathic effect on RD cells; settings: Rhinovirus A
Description: as §1

[4] = tested on: Influenza A/TW/355/97 (H1N1); assay: Anti-influenza neutralization test, various influenza virus strains; assay type: cell-based
Coxsackie B virus 3 = assay: In vitro Coxsackie Virus B3 neutralization assay, cytopathic effect on RD cells
Description: as §1

[5] = tested on: Influenza A/TW/147/09 (H1N1); assay: Anti-influenza neutralization test, various influenza virus strains; assay type: cell-based
[6] = Influenza A/WSN/33 (H1N1), MDCK cells, lower bound in nM, upper bound in μM
[7] = Influenza A/WSN/33 (H1N1), MDCK cells
[8] = 72 h, read-out: Inhibition (%) Day 3
[9] = 120 h, read-out: Inhibition (%) Day 5
[10] = 168 h, read-out: Inhibition (%) Day 7

SMILES	IC50 [1, 6] [nM]	IC50 [1, 7] [nM]	also measured
Cc1ccc(-n2ncc(-c3cc(C(=O)O)c4cc(Br)ccc4n3)c2C)c(C)c1 [Compound 5]	10 to 999	–	–
Cc1ccc(C)c(-n2ncc(-c3cc(C(=O)O)c4cc(F)ccc4n3)c2C)c1 [Compound 50]	–	1000 to 5900	–
Cc1c(-c2cc(C(=O)O)c3cc(Cl)ccc3n2)cnn1-c1ccccc1 [Compound 4]	10 to 999	–	–
Cc1c(-c2cc(C(=O)O)c3cc(Br)ccc3n2)cnn1-c1ccc(F)cc1F [Compound 21]	–	1000 to 5900	–
Cc1ccc(C)c(-n2ncc(-c3cc(C(=O)O)c4cc(Br)cc(C)c4n3)c2C)c1 [Compound 59]	–	1000 to 5900	–
Cc1c(-c2cc(C(=O)O)c3cc(Br)ccc3n2)cnn1-c1ccc(Cl)cc1 [Compound 12]	–	1000 to 5900	–
Cc1c(-c2cc(C(=O)O)c3cc(Br)ccc3n2)cnn1-c1cccc([N+](=O)[O-])c1 [Compound 29]	–	6000 to 25000	–
Cc1c(-c2cc(C(=O)O)c3cc(Br)ccc3n2)cnn1-c1cc(Cl)cc(Cl)c1 [Compound 57]	–	1000 to 5900	–
Cc1c(-c2cc(C(=O)O)c3cc(Br)ccc3n2)cnn1-c1ccc([N+](=O)[O-])cc1 [Compound 16]	–	1000 to 5900	–
Cc1cccc(-n2ncc(-c3cc(C(=O)O)c4cc(Br)ccc4n3)c2C)c1C [Compound 30]	10 to 999	–	–
Cc1cccc(C)c1-n1ncc(-c2cc(C(=O)O)c3cc(Br)ccc3n2)c1C [Compound 36]	–	1000 to 5900	–
Cc1c(-c2cc(C(=O)O)c3cc(Br)ccc3n2)cnn1-c1ccc(F)cc1 [Compound 10]	10 to 999	–	–
Cc1ccc(Cl)cc1-n1ncc(-c2cc(C(=O)O)c3cc(Br)ccc3n2)c1C [Compound 31]	10 to 999	–	–
Cc1c(-c2cc(C(=O)O)c3cc(Br)ccc3n2)cnn1-c1cccc(Cl)c1 [Compound 25]	–	–	IC50 ([1]; MDCK): 10 to 999 nM
Cc1cc(Cl)ccc1-n1ncc(-c2cc(C(=O)O)c3cc(Br)ccc3n2)c1C [Compound 14]	10 to 999	–	inhibition at 10 µM (HIV-1; [8]): 20%; inhibition at 0.01 µM (HIV-1; [9]): 48%; inhibition at 10 µM (HIV-1; [9]): 59%; inhibition at 10 µM (HIV-1; [10]): 86%
Cc1c(-c2cc(C(=O)O)c3cc(Br)ccc3n2)cnn1-c1c(Cl)cccc1Cl [Compound 41]	–	6000 to 25000	–
Cc1c(-c2cc(C(=O)O)c3cc(Br)ccc3n2)cnn1-c1c(Cl)cc(Cl)cc1Cl [Compound 42]	–	1000 to 5900	–
Cc1c(-c2cc(C(=O)O)c3cc(Br)ccc3n2)cnn1-c1cc(F)ccc1F [Compound 40]	–	6000 to 25000	–
Cc1c(-c2cc(C(=O)O)c3cc(Br)ccc3n2)cnn1-c1cccc(F)c1 [Compound 11]	–	1000 to 5900	–
Cc1ccccc1-n1ncc(-c2cc(C(=O)O)c3cc(Br)ccc3n2)c1C [Compound 17]	10 to 999	–	–
Cc1c(-c2cc(C(=O)O)c3cc(Br)ccc3n2)ncn1-c1ccccc1 [Compound 51]	10 to 999	–	–
Cc1c(-c2cc(C(=O)O)c3cc(Br)ccc3n2)cnn1-c1ccc(C(C)C)cc1 [Compound 13]	10 to 999	–	–
Cc1c(-c2cc(C(=O)O)c3cc(Br)ccc3n2)cnn1-c1cc(Cl)ccc1Cl [Compound 39]	–	6000 to 25000	–
Cc1cc(-c2cc(C(=O)O)c3cc(Br)ccc3n2)nn1-c1ccc2ccccc2n1 [Compound 75]	–	1000 to 5900	–
Cc1c(-c2cc(C(=O)O)c3cc(Br)ccc3n2)cnn1-c1ccc(F)c(F)c1 [Compound 6]	–	1000 to 5900	–
Cc1c(-c2cc(C(=O)O)c3cc(Br)ccc3n2)ccn1-c1ccccc1 [Compound 48]	–	1000 to 5900	–
Cc1cc(-c2cc(C(=O)O)c3cc(Br)ccc3n2)nn1-c1nc2ccccc2s1 [Compound 73]	–	1000 to 5900	–
Cc1ccc(C)c(-n2ncc(-c3cc(C(=O)O)c4cc(Cl)ccc4n3)c2C)c1 [Compound 33]	10 to 999	–	–

SMILES	IC50 [1, 6] [nM]	IC50 [1, 7] [nM]	also measured
COc1ccc(-n2ncc(-c3cc(C(=O)O)c4cc(Br)ccc4n3)c2C)cc1 [Compound 7]	–	1000 to 5900	–
Cc1cc(C)cc(-n2ncc(-c3cc(C(=O)O)c4cc(Br)ccc4n3)c2C)c1 [Compound 15]	10 to 999	–	–
Cc1c(-c2cc(C(=O)O)c3cc(Br)ccc3n2)cnn1-c1ccc(Br)cc1 [Compound 20]	10 to 999	–	–
Cc1nc(-c2ccccc2)sc1-c1cc(C(=O)O)c2cc(Br)ccc2n1 [Compound 46]	–	1000 to 5900	–
Cc1ccc(C)c(-n2ncc(-c3cc(C(=O)O)c4cc(I)ccc4n3)c2C)c1 [Compound 60]	10 to 999	–	–
CC(=O)N[C@H]1[C@H]([C@H](O)[C@H](O)CO)OC(C(=O)O)=C[C@@H]1N=C(N)N [Relenza, Zanamivir]	–	–	IC50 [2]: 809 ± 150 nM; IC50 [3]: 860 ± 360 nM; IC50 (Enterovirus 71/4643/MP4): > 25000 nM; IC50 (Human rhinovirus 2): > 25000 nM; IC50 [4]: 1050 ± 458 nM; IC50 (Coxsackie B virus 3): > 25000 nM; IC50 [5]: 22500 ± 3470 nM
NC12CC3CC(CC(C3)C1)C2 [Amantadine]	–	–	IC50 [2]: 960 ± 317 nM; IC50 [3]: 762 ± 280 nM; IC50 (Enterovirus 71/4643/MP4): > 25000 nM; IC50 (Human rhinovirus 2): > 25000 nM; IC50 [4]: 12600 ± 6930 nM; IC50 (Coxsackie B virus 3): > 25000 nM; IC50 [5]: 1470 ± 603 nM
Cc1cc(C(F)(F)F)cc(-n2nc(-c3cc(C(=O)O)c4cc(Br)ccc4n3)cc2C)n1 [Compound 74]	–	1000 to 5900	–
Cc1c(-c2cc(C(=O)O)c3cc(Br)ccc3n2)cnn1-c1ccccc1F [Compound 24]	–	–	IC50 ([1]; MDCK): 10 to 999 nM
O=C(O)c1cc(-c2cnn(-c3ccccc3)c2)nc2ccc(Br)cc12 [Compound 43]	–	6000 to 25000	–
Cc1c(-c2ccccc2)cccc1-c1cc(C(=O)O)c2cc(Br)ccc2n1 [Compound 76]	–	1000 to 5900	–
COc1cccc(-n2ncc(-c3cc(C(=O)O)c4cc(Br)ccc4n3)c2C)c1 [Compound 18]	–	1000 to 5900	–
Cc1c(-c2cc(C(=O)O)c3cc(Br)ccc3n2)cnn1-c1ccc(Cl)cc1Cl [Compound 27]	–	–	IC50 ([1]; MDCK): 10 to 999 nM
Cc1c(-c2cc(C(=O)O)c3cc(Br)ccc3n2)cnn1-c1ccc(Cl)c(Cl)c1 [Compound 8]	–	1000 to 5900	–
Cc1ccc(-n2ncc(-c3cc(C(=O)O)c4cc(Br)ccc4n3)c2C)cc1 [Compound 9]	10 to 999	–	–
Cc1c(-c2cc(C(=O)O)c3cc(Br)ccc3n2)cnn1-c1ccc(C(F)(F)F)cc1 [Compound 23]	–	1000 to 5900	–
CCc1ccccc1-n1ncc(-c2cc(C(=O)O)c3cc(Br)ccc3n2)c1C [Compound 38]	–	1000 to 5900	–
O=C(O)c1cc(-c2cc(-c3ccccc3)no2)nc2ccc(Br)cc12 [Compound 19]	–	1000 to 5900	–
Cc1cccc(-n2ncc(-c3cc(C(=O)O)c4cc(Br)ccc4n3)c2C)c1 [Compound 26]	–	–	IC50 ([1]; MDCK): 10 to 999 nM
Cc1c(-c2cc(C(=O)O)c3cc(Br)ccc3n2)noc1-c1ccccc1 [Compound 49]	–	1000 to 5900	–
Cc1ccc(Cl)cc1-n1ncc(-c2cc(C(=O)O)c3cc(Cl)ccc3n2)c1C [Compound 34]	10 to 999	–	–
Cc1cn([C@H]2C[C@H](N=[N+]=[N-])[C@@H](CO)O2)c(=O)[nH]c1=O [AZT, zidovudine, reference compound]	–	–	inhibition at 0.04 µM (HIV-1; [8]): 30%; inhibition at 0.04 µM (HIV-1; [9]): 60%; inhibition at 0.04 µM (HIV-1; [10]): 67%
Cc1c(-c2cc(C(=O)O)c3cc(F)ccc3n2)cnn1-c1ccccc1 [Compound 3]	–	1000 to 5900	–
CCCc1cccc(-n2ncc(-c3cc(C(=O)O)c4cc(Br)ccc4n3)c2C)c1 [Compound 22]	10 to 999	–	–
Cn1c(-c2ccccc2)ccc1-c1cc(C(=O)O)c2cc(Br)ccc2n1 [Compound 47]	10 to 999	–	–
Cc1ccc(C)c(-n2ncc(-c3cc(C(=O)O)c4cc(Br)cc(Br)c4n3)c2C)c1 [Compound 58]	–	1000 to 5900	–
Cc1cc(C)c(-n2ncc(-c3cc(C(=O)O)c4cc(Br)ccc4n3)c2C)c(C)c1 [Compound 37]	–	1000 to 5900	–
